According to patent publication EP0530994A1, “Quinazoline derivatives as inhibitors of HIV reverse transcriptase” (MERCK & CO. INC., priority 1991, dated 1993):

Target: T1, recombinant HIV reverse transcriptase (HIV RTR) (Human immunodeficiency virus type 1 group M subtype B, UniProt P03366)
T1 construct: recombinant HIV reverse transcriptase (HIV RTR)
Assay: Reverse transcriptase assay (incorporation of tritiated deoxyguanosine monophosphate into acid-precipitable cDNA)
Format: biochemical
Conditions: [³H] dGTP and poly r(C)·oligo d(G)12-18 each at about Km; 37°C for 45 minutes; read-out: IC₅₀ value
Protocol: The assay measures the incorporation of tritiated deoxyguanosine monophosphate by recombinant HIV reverse transcriptase (HIV RTR) (or other RT) into acid-precipitable cDNA at the Km values of dGTP and poly r(C)·oligo d(G)₁₂₋₁₈.
Thirty µL of a reaction mixture containing equal volumes of: 500 mM Tris·HCl (pH 8.2), 300 mM MgCl₂, 1200 mM KCl, 10 mM DTT, 400 µg/mL poly r(c)·oligo d(G) [prepared by dissolving 1.5 mg (25 U) poly r(C)·oligo d(G) in 1.5 ml sterile distilled H₂O and diluting to 400 µg/ml], 0.1 µCi/µl [³H] dGTP, 160 µM dGTP, was added to 10 µl sterile distilled H₂O, 2.5 µl of potential inhibitor and 10 µL of 5 nM purified HIV RTR in tubes. The mixture was incubated at 37°C for 45 minutes.
After incubation is complete, the tubes were cooled in ice for 5 minutes. Ice-cold 13% TCA containing 10 mM NaPPi (200 µl) is added and the mixture incubated on ice for 30 minutes. The precipitated cDNA is removed by filtration using presoaked glass filters [TCA, NaPPi]. […]
The filter discs are then counted in a scintillation counter.
Under these conditions [dGTP] and poly r(C)·oligo d(G)₁₂₋₁₈ each are approximately equal to the appropriate Km value. […] Calculated IC₅₀ values for the tested compounds of this invention vary from about 12 nM to more than 300 µM, with the most preferred compounds having values of between about 30 nM and about 60 µM. […]

C#CC1(c2ccccc2)c2cc(Cl)ccc2NC(=O)N1C (single isomer, unassigned; (+)) [(+) optical isomer of compound 4, 6-Chloro-3,4-dihydro-3-methyl-4-phenyl-4-ethynyl-2(1H)-quinazolinone]
IC50: ~0.06 nM
